Settings: Liquid; for thermal conductivity: Hot wire method; for viscosity: Capillary tube (Ostwald / Ubbelohde) method; for mass density: Pycnometric method

CCCCCCCCCC(=O)O [decanoic acid]
101.33 kPa
Settings	mass density [kg/m3]	thermal conductivity [W/m/K]	viscosity [mPa·s]
308 K	–	0.154	–
322.1 K	878	–	4.75
327.4 K	–	0.15	–
332.1 K	871	–	3.8
348.8 K	–	0.146	–
352.1 K	855.3	–	2.55
368.3 K	843.1	–	1.94
373.9 K	–	0.14	–
388.3 K	827.3	–	1.45
398.3 K	–	0.135	–
408.2 K	812.2	–	1.1
421.9 K	–	0.13	–
427.2 K	797.2	–	0.88
428.2 K	796.4	–	0.87
442.2 K	784.9	–	0.75
447.3 K	–	0.125	–
457.2 K	772.9	–	0.64
472.2 K	761.9	–	0.56
473.4 K	–	0.119	–

CCCCCCCCCCCC(=O)O [dodecanoic acid]
101.33 kPa
Settings	mass density [kg/m3]	thermal conductivity [W/m/K]	viscosity [mPa·s]
322.1 K	872.4	–	7.21
324.6 K	–	0.156	–
332.1 K	864.6	–	5.62
348.7 K	–	0.151	–
352.1 K	849.9	–	3.7
368.2 K	838.9	–	2.69
373.8 K	–	0.145	–
388.4 K	824.1	–	1.97
398.4 K	–	0.14	–
408.1 K	809.3	–	1.47
422 K	–	0.134	–
428.1 K	794.4	–	1.11
442.2 K	783.5	–	0.95
447.5 K	–	0.129	–
457.2 K	770.2	–	0.8
467.2 K	762	–	0.72
472.7 K	–	0.123	–

CCCCCCC(=O)O [heptanoic acid]
101.33 kPa
Settings	mass density [kg/m3]	thermal conductivity [W/m/K]	viscosity [mPa·s]
290.3 K	920.6	–	4.63
296 K	–	0.144	–
308 K	905.7	–	3.06
314.4 K	–	0.14	–
323.1 K	893	–	2.3
332.4 K	–	0.137	–
338.1 K	880.4	–	1.74
352.6 K	–	0.133	–
353.1 K	867.8	–	1.39
367.1 K	855.4	–	1.13
372.2 K	–	0.13	–
382 K	–	0.127	–
383.2 K	842.3	–	0.94
391.9 K	–	0.124	–
397.9 K	829.4	–	0.79
412.4 K	–	0.121	–
412.9 K	816.6	–	0.68
427.7 K	803.4	–	0.59
441.7 K	–	0.116	–
471.4 K	–	0.11	–

CCCCCC(=O)O [hexanoic acid]
101.33 kPa
Settings	mass density [kg/m3]	thermal conductivity [W/m/K]	viscosity [mPa·s]
294.5 K	926	–	–
294.6 K	–	–	3.07
296.9 K	–	0.143	–
312.1 K	910.5	–	2.15
325.7 K	–	0.138	–
332.1 K	893.1	–	1.52
347.4 K	–	0.134	–
352.1 K	875.8	–	1.14
368.1 K	861.7	–	0.94
374.7 K	–	0.128	–
388.4 K	843.5	–	0.73
398.1 K	–	0.124	–
408.3 K	825.3	–	0.6
422.3 K	–	0.12	–
428.3 K	806.5	–	0.49
445.6 K	–	0.116	–
471.2 K	–	0.113	–

CCCCCCCCC(=O)O [nonanoic acid]
101.33 kPa
Settings	mass density [kg/m3]	thermal conductivity [W/m/K]	viscosity [mPa·s]
290.3 K	906	–	–
292.3 K	–	–	8.2
296.3 K	–	0.15	–
308 K	893.8	–	5.25
322.6 K	–	0.144	–
323.1 K	881.9	–	3.66
338.1 K	870.1	–	2.7
352.9 K	–	0.139	–
353.1 K	858.4	–	2.07
368 K	846.7	–	1.63
381.3 K	–	0.133	–
383.1 K	834.1	–	–
383.3 K	–	–	1.31
398.1 K	822.3	–	1.08
412.2 K	–	0.126	–
413 K	810.3	–	0.9
427.9 K	798	–	0.76
441.4 K	–	0.121	–
471.6 K	–	0.115	–

CCCCCCCC(=O)O [octanoic acid]
101.33 kPa
Settings	mass density [kg/m3]	thermal conductivity [W/m/K]	viscosity [mPa·s]
290.3 K	910.3	–	–
293.3 K	–	–	5.86
297.2 K	–	0.147	–
308 K	898.2	–	3.98
322.3 K	–	0.142	–
323.1 K	885.9	–	2.88
338.1 K	873.8	–	2.17
352.8 K	–	0.136	–
353.1 K	861.8	–	1.69
367.8 K	849.7	–	1.36
383.1 K	837.2	–	1.11
387.6 K	–	0.13	–
398.1 K	824.6	–	0.92
411.3 K	–	0.124	–
412.9 K	812.3	–	0.78
427.7 K	799.2	–	0.67
442 K	–	0.118	–
471.7 K	–	0.112	–

CCCCC(=O)O [pentanoic acid]
Settings	mass density [kg/m3]	thermal conductivity [W/m/K]	viscosity [mPa·s]
293.4 K	939.7	–	2.19
296.1 K	–	0.141	–
312.1 K	922.3	–	1.56
324.1 K	–	0.136	–
332.1 K	904.1	–	1.17
348.6 K	–	0.131	–
352.2 K	885.4	–	0.89
368.1 K	870.6	–	0.75
374 K	–	0.126	–
388.4 K	851	–	0.6
398 K	–	0.122	–
408.3 K	831.9	–	0.5
422.4 K	–	0.118	–
428.2 K	812.1	–	0.41
446.4 K	–	0.115	–
471.3 K	–	0.111	–

CCCCCCCCCCCCCC(=O)O [tetradecanoic acid]
101.33 kPa
Settings	mass density [kg/m3]	thermal conductivity [W/m/K]	viscosity [mPa·s]
332.1 K	861.3	–	7.77
334.4 K	–	0.158	–
349 K	–	0.155	–
352.1 K	846.9	–	4.88
368.2 K	835.6	–	3.53
374.1 K	–	0.149	–
388.2 K	821.4	–	2.48
397.7 K	–	0.144	–
408.2 K	806.7	–	1.79
422.3 K	–	0.139	–
427.9 K	791.7	–	1.35
442.2 K	–	–	1.13
443.2 K	780.9	–	–
447.3 K	–	0.133	–
457.2 K	–	–	0.95
458.2 K	769.3	–	–
471.9 K	–	0.127	–
472.2 K	–	–	0.81
473.2 K	758	–	–

— the NIST ThermoML archive (doi:10.1021/acs.jced.5b00971)
